For orientation: pKd means the Kd on a negative log10 scale, so that one unit is a factor of ten. Higher therefore signals a low Kd.

Here are results for three compounds from patent US9636342B2, “Method for treating prostate cancer” (UNIVERSITY OF SOUTH CAROLINA, priority 2012, dated 2017).

pKd: −log10 of the molar value.

Data set [1] has as its system androgen-responsive genes in LNCaP cells. Put plainly: qPCR expression of androgen-responsive genes in LNCaP cells. It is filed as cell-based.
The test system of data set [2] is AR. Put plainly: Promoter activity assay (firefly luciferase reporter) in HEK293 cells overexpressing full-length wild-type AR. It is filed as cell-based. To be noted: for activation of androgen-responsive construct (firefly luciferase reporter under PSA gene promoter): HEK-293 cells overexpressing AR, in the presence of R1881 (FIG. 4A, FIG. 5). A general note: In a reporter assay the amount or activity of a reporter protein is the signal.

Data set [3] deals with LNCaP-LN3 cells. The data set is described as follows: Growth of androgen-independent LNCaP-LN3 cells in androgen-depleted CSS media (cell count). It is filed as cell-based. Particulars: for growth (total cell number): LNCaP-LN3 cells, 5 μM Senexin B or 10 μM MDV3100 (FIG. 6B). The text has this:
(§1) In most of CRPC patients, prostate cancer tumor cells restore their AR activities despite low-androgen environment or presence of AR antagonists.

Data set [4] addresses CDK8 (Homo sapiens, UniProt P49336). Put plainly: Senexin B inhibition of CDK8 kinase activity (Kd). It counts as binding. The text has this:
The invention provides a method for treating prostate cancer in a subject comprising administering to the subject an effective amount of a selective inhibitor of one or more of CDK8 and CDK19. […] For purposes of the invention, “specific inhibitors of CDK8/19” are small molecule compounds that inhibit CDK8 or CDK8 and CDK19 to a greater extent than they inhibit certain other CDKs. In some embodiments, such compounds further inhibit CDK8 to a greater extent than CDK9. In preferred embodiments, such greater extent is at least 2-fold more than CDK9. Compounds that are useful in the invention are described in co-pending US Patent Publications 20120071477 and 20120071477 and PCT Publication WO2013/116786. Extent of inhibition is measured by the assays taught in co-pending PCT Publication WO2013/116786.
(§2) These small molecules selectively bind to the ATP pockets of CDK8/19 to inhibit their kinase activity.

The test system of data set [5] is AR-dependent genes in C4-2 cells. The data set is described as follows: qPCR expression of AR-dependent genes KLK3 (PSA) and KLK2 in C4-2 cells without androgen. It is filed as cell-based. Particulars: CSS media 2d, treated 24 hours (FIG. 6C). The text has this: (§3) Endogenous AR activities in these cells were estimated by qPCR analysis of mRNA expression of AR-dependent genes, KLK3 (PSA) and KLK2.
Background: In qPCR the cycle at which signal appears reflects the starting amount.

The test system of data set [6] is C4-2 cells. The data set is described as follows: Growth of androgen-independent C4-2 cells in androgen-depleted CSS media (cell count). It is filed as cell-based. To be noted: different concentrations of Senexin B (FIG. 6A).
Source text: as §1

Data set [7] in a line: Water solubility. It is filed as physicochemical.
Source text: as §2

In data set [8] the test system is LN-CaP LN3 (LN3) prostate cancer cells xenograft. The data set is described as follows: LNCaP-LN3 xenograft growth in nude mice. It counts as in vivo, nude male mice. To be noted: 40 mg/kg i.p. daily. The method, then: 6-8 week-old nude male mice (Jackson Laboratory) were subcutaneously injected with 2 million LN-CaP LN3 (LN3) prostate cancer cells in the right flank, with Matrigel. Visible tumors formed ˜14 days after injection. […] The tumor size was measured by caliper 3 times per week and calculated by the equation length*width*width*0.5. […] At the end of the experiment, mice from each group were sacrificed to determine final tumor weight.

For data set [9], the system named is CWR22rv1 cells. The data set is described as follows: Growth of androgen-independent CWR22rv1 cells in androgen-depleted CSS media (cell count). It is filed as cell-based. To be noted: for growth (total cell number): 5 μM Senexin B or 10 μM MDV3100 (FIG. 6B).
Source text: as §1

The subject of data set [10] is AR-dependent genes in LNCaP-LN3 cells. Put plainly: qPCR expression of AR-dependent genes KLK3 (PSA) and KLK2 in LNCaP-LN3 cells without androgen. It is filed as cell-based. Particulars: for expression of KLK2 / expression of PSA: LNCaP-LN3 cells, absence of androgen, 5 μM Senexin B or 10 μM MDV3100 (FIG. 6D).
Source text: as §3

Data set [11] relates to AR-dependent genes in CWR22rv1 cells. The data set is described as follows: qPCR expression of AR-dependent genes KLK3 (PSA) and KLK2 in CWR22rv1 cells without androgen. It is filed as cell-based. To be noted: for expression of KLK2 / expression of PSA: absence of androgen, 5 μM Senexin B or 10 μM MDV3100 (FIG. 6D).
Source text: as §3

Data set [12] relates to PC-3 cells. The data set is described as follows: Growth of PC-3 cells in androgen-depleted CSS media (cell count). It counts as cell-based. To be noted: different concentrations of Senexin B, p<0.05 vs DMSO (FIG. 7). The text has this:
PC-3 cell growth was previously shown to be inhibited by the inhibition of transcription factor NFκB^43-45, and CDK8/19 inhibition was discovered by Senex to decrease the induction of NFκB transcriptional activity (PCT Publication WO2013/040153).

Chain of CDK8 (P49336 whole entry): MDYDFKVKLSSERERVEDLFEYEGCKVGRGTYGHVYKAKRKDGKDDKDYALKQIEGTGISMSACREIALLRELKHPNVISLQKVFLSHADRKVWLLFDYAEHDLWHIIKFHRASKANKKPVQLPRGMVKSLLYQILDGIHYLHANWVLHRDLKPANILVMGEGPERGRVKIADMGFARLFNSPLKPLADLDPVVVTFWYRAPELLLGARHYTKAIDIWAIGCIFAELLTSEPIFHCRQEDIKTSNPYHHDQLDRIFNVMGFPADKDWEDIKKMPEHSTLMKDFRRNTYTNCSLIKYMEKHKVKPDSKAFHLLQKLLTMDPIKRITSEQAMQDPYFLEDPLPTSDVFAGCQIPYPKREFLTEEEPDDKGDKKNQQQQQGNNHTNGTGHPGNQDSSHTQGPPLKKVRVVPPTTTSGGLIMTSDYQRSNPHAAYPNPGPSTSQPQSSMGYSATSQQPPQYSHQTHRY

For the compound `N#Cc1ccc2ncnc(NCCc3ccccc3)c2c1` [Senexin A], the “androgen-stimulated transcriptional activation of androgen-responsive genes PSA (KLK3), KLK2, TMPRSS2, PGC” value in data set [1] (LNCaP cells, Senexin A 5 μM, androgen-supplemented (500 pM R1881) or androgen-deprived conditions (FIG. 2A)) is recorded as “significantly inhibited”. In data set [2] (HEK293 cells overexpressing AR, Senexin A 1 μM and 5 μM, in the presence of R1881 (FIG. 4B)), the “activation of androgen-responsive construct (firefly luciferase reporter under PGC gene promoter)” value is reported as “significantly inhibits”. Moreover, the “activation of androgen-responsive construct (firefly luciferase reporter under PSA gene promoter)” value in data set [2] is recorded as “significantly inhibited”.
On to `CN1CCN(C(=O)c2ccc3cc(CCNc4ncnc5ccc(C#N)cc45)ccc3c2)CC1` [Senexin B], for which the “androgen-independent growth (total cell number)” value in data set [3] (LN3 cells, different concentrations of Senexin B (FIG. 6A)) is given as “strongly inhibited”; in data set [6] it was “strongly inhibited”; in data set [9] (different concentrations of Senexin B (FIG. 6A)), “strongly inhibited”. For the same compound, the entries for the “growth (total cell number)” value in data set [3] and in [9] were “strongly inhibited” and “significantly inhibited”, respectively. This compound also gave a pKd in data set [4] of 6.85. For the same compound, the “expression of PSA and KLK2” value in [5] was “down-regulated”; in data set [10] (LN3 cells, CSS media 2d, treated 24 hours (FIG. 6C)) it was “down-regulated”; in [11] (CSS media 2d, treated 24 hours (FIG. 6C)), “down-regulated”. In [7], this compound gave a water solubility of at most 50 mM. Further, the “appearance (health) of treated mice” value in data set [8] (5 days per week for 2 weeks) was “looked as healthy as the mice in the vehicle control group”. In data set [8] (5 days per week for 2 weeks (FIG. 9)), the “body weight of the hosts” value is “no effects”. In addition, the “tumor growth (tumor volume)” value in data set [8] (5 days per week for 2 weeks, relative to vehicle control (FIG. 8)) is given as “dramatically inhibits”. The final tumor weight result in data set [8] (5 days per week for 2 weeks, vs control group (FIG. 10)) is reported as “significantly lower”. Moreover, in data set [1] (LNCaP cells, Senexin B 1 μM and 4 μM (FIG. 2C)), the “effect on the inhibition of androgen-inhibited genes AR, OPRK1, STXBP6 by androgen” value is “did not interfere with the inhibition”. In addition, the “androgen-stimulated transcriptional activation of androgen-responsive genes PSA (KLK3), KLK2, TMPRSS2, SGK1, KLF5, PGC” value in data set [1] (LNCaP cells, Senexin B 1 μM and 4 μM, androgen-supplemented (500 pM R1881, 24 hr after 5-day deprivation) (FIG. 2B)) was “significantly inhibited”. The “androgen-stimulated transcription of androgen-responsive genes after pretreatment” value in data set [1] (androgen-deprived LNCaP cells, Senexin B 1 μM and 4 μM added 1 hr before 500 pM R1881, p<0.05 vs DMSO (FIG. 3)) was “significantly inhibited”. In addition, the “expression of KLK2” value in [10] and in data set [11] was “strongly down-regulates” each time. Also, the “expression of PSA” value in [10] and in data set [11] was “strongly down-regulates” in each case. In data set [2], the “activation of androgen-responsive construct (firefly luciferase reporter under PSA gene promoter)” value was “significantly inhibited”. Besides, the “growth of PC-3 cells (total cell number)” value in data set [12] is on record as “inhibited”.
Consider `CNC(=O)c1ccc(N2C(=S)N(c3ccc(C#N)c(C(F)(F)F)c3)C(=O)C2(C)C)cc1F` [MDV3100, enzalutamide, reference compound], for which the “growth (total cell number)” value is given as “weakly inhibited” in data set [3] and “does not inhibit” in [9]. Moreover, the “expression of KLK2” value in data set [10] and in data set [11] was “does not down-regulate” each time. Besides, the entries for the “expression of PSA” value in data set [10] and in data set [11] were “weakly down-regulates” and “does not down-regulate”, respectively.
